Data on 13 molecules can be found in ChEMBL document CHEMBL1137465, “Cytostatic evaluations of nucleoside analogs related to unnatural base pairs for a genetic expansion system” (Bioorg Med Chem Lett, 2007).

Data set [1] in a line: Cytostatic activity against human WI38 cells at 500 uM by MTT assay. Type of data set: ADME, cell-based, WI-38.
In data set [2] the test system is HT-1080. Put plainly: Cytostatic activity against human HT1080 cells at 500 uM by MTT assay. Type of data set: functional. On the technique in general: Tetrazolium dyes change colour on reduction, which living cells bring about.
Data set [3] has as its system HT-1080. Put plainly: Cytostatic activity against human HT1080 cells assessed as relative percent survival at 5 uM by MTT assay. The note with it: read-out: Survival. Type of data set: functional.
In data set [4] the test system is CCRF-CEM. Put plainly: Cytostatic activity against human CCRFCEM cells by MTT assay. Type of data set: functional, cell-based.
The nature of data set [5]: Cytostatic activity against human WI38 cells assessed as relative percent survival at 5 uM by MTT assay. The class given is ADME, cell-based, WI-38. The note with it: read-out: Survival.
In data set [6] the test system is HT-1080. Put plainly: Cytostatic activity against human HT1080 cells assessed as relative percent survival at 25 uM by MTT assay. The conditions noted are these: read-out: Survival. Type of data set: functional.
A further data set relates to WI-38. In words: Cytostatic activity against human WI38 cells assessed as relative percent survival at 25 uM by MTT assay. The class given is functional. The conditions noted are these: read-out: Survival.
The nature of data set [7]: Cytostatic activity against human WI38 cells MTT assay. The class given is ADME, cell-based. The conditions noted are these: WI-38.
The subject of data set [8] is HT-1080. Put plainly: Cytostatic activity against human HT1080 cells by MTT assay. The class given is functional, cell-based.
Data set [9] has as its system CCRF-CEM. In words: Cytostatic activity against human CCRFCEM cells at 500 uM by MTT assay. Type of data set: functional.

By inhibition is commonly meant the share of the control response that was lost under treatment. A lower inhibition goes with a response near the control. On to `O=c1[nH]cccc1[C@H]1C[C@H](O)[C@@H](CO)O1`, for which the inhibition at 500 µM (in data set [1]; in the data set on HT-1080 [2]) was less than 50% throughout.
By IC50 is commonly meant the midpoint of a concentration-inhibition curve. Low readings indicate greater potency in that assay, high ones weaker potency in that assay. Take `Nc1nc(-c2cccs2)c2ncn([C@H]3C[C@H](O)[C@@H](CO)O3)c2n1`: the viability at 5 µM in the data set on HT-1080 [3] is 97%; in data set [5], 92%. The IC50 stood at 340 µM in the data set with CCRF-CEM [4], 500 µM in data set [7] and 38 µM in the data set on HT-1080 [8]. The results for the viability at 25 µM with HT-1080 [6] and in the data set on WI-38 were 69% and 91%, respectively.
In the case of `Nc1nc(-c2cccs2)c2ncn([C@@H]3O[C@H](CO)[C@@H](O)[C@H]3O)c2n1`, the inhibition at 500 µM (in data set [1]; in the data set on CCRF-CEM [9]) was less than 50% throughout. Besides, the IC50 in the data set with HT-1080 [8] was found to be 88 µM.
As for `OC[C@H]1O[C@@H](n2cnc3c(-c4cccs4)ncnc32)[C@H](O)[C@@H]1O`, the values for the IC50 (in the data set with CCRF-CEM [4]; in [7]; in the data set with HT-1080 [8]) were 2.3 µM, 5.7 µM and 0.33 µM, respectively.
For `OC[C@H]1O[C@@H](n2cnc3c(-c4cccs4)ccnc32)C[C@@H]1O`, in that order: 120 µM, 190 µM and 56 µM.
Turning to `O=Cc1cccn1[C@@H]1O[C@H](CO)[C@@H](O)[C@H]1O`, the inhibition at 500 µM (in data set [1]; in the data set on HT-1080 [2]; in the data set on CCRF-CEM [9]) was less than 50% each time.
Consider `O=c1[nH]cccc1[C@@H]1O[C@H](CO)[C@@H](O)[C@H]1O`, for which the inhibition at 500 µM (in [1]; in the data set on HT-1080 [2]) was less than 50% throughout.
On to `OC[C@H]1O[C@@H](n2cnc3c(-c4cccs4)ccnc32)[C@H](O)[C@@H]1O`, for which the IC50 was 230 µM in the data set on CCRF-CEM [4], 310 µM in data set [7] and 190 µM with HT-1080 [8].
As to `OC[C@H]1O[C@@H](n2cnc3c(-c4cccs4)ncnc32)C[C@@H]1O`, the inhibition at 500 µM in data set [1] was less than 50%. Also, the IC50 in the data set with CCRF-CEM [4] was 420 µM; in the data set on HT-1080 [8], 95 µM.
Consider `Nc1nc(-c2ccco2)c2ncn([C@H]3C[C@H](O)[C@@H](CO)O3)c2n1`, for which the inhibition at 500 µM (in [1]; with CCRF-CEM [9]) was less than 50% each time. This molecule returned an IC50 in the data set with HT-1080 [8] of 290 µM.
For `OC[C@H]1O[C@@H](n2cnc3c(-c4ccco4)ncnc32)C[C@@H]1O`, the inhibition at 500 µM (in data set [1]; with CCRF-CEM [9]) was less than 50% each time. The IC50 in the data set on HT-1080 [8] amounted to 330 µM.
For the molecule `O=Cc1cccn1[C@H]1C[C@H](O)[C@@H](CO)O1`, the inhibition at 500 µM (in [1]; in the data set with HT-1080 [2]; with CCRF-CEM [9]) was less than 50% each time.
In the case of `O=c1[nH]c(=O)n([C@H]2C[C@H](O)[C@@H](CO)O2)cc1F` [FLOXURIDINE], the IC50 with CCRF-CEM [4] turned out to be 0.29 µM; in data set [7], 500 µM; in the data set on HT-1080 [8], 0.18 µM.
